# Reference: patent publication US9878984B2, “Anti-cancer compounds” (NORTHWESTERN UNIVERSITY, priority 2008, dated 2018)
# Molecular target: T1, wild type recombinant human NAT2 (NAT2*4) (Homo sapiens, UniProt P11245)
# T1 construct: made in house; host or cells: E. coli
# T1 sequence (P11245 1-290): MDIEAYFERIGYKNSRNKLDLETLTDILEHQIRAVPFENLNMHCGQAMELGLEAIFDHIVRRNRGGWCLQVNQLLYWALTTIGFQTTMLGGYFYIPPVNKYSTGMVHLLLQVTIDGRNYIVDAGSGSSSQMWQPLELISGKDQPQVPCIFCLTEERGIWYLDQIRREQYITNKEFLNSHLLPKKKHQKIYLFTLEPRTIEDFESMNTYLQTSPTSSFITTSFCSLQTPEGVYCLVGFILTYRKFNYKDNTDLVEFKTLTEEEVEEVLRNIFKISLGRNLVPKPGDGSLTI
# Assay: NAT2 acetylation assay (mass spectrometry)
# Format: in vitro ADME
# Details: 200 μM compound, 100 μg NAT2*4, 400 μM AcetylCoA, 10 min
# Method: NAT2 Assay: This assay was performed using a wild type recombinant human NAT2 (NAT2*4) that was purified from E. coli as previously described. The volume of each reaction was 500 μL with 200 μM amonafide, A1, or A2, 100 μg NAT2*4, and 400 μM AcetylCoA (Sigma-Poole, UK). Reactions were run for 0 or 10 min and stopped by addition of 500 μL of 20% (w/v) trichloroacetic acid (TCA-Sigma-Poole, UK) to give a final TCA concentration of […], which precipitates the enzyme. Two control assays, lacking either enzyme or compound, were performed for each compound. The reaction mixtures were prepared for analysis by isolation of the compounds from the reaction matrix by solid-phase extraction. In brief, 100 μL of the reaction mixture was added to 1 mL of 2% acetic acid. The sorbent of an Oasis HLB 30 mg Extraction Cartridge (Waters Chromatography—Milford, Mass.) was conditioned with 1 mL of methanol and 1 mL of water, the prepared sample was applied to the conditioned sorbent, and the sorbent was washed with 1 mL of 5% methanol. Samples were eluted with 200 μL methanol followed by 800 μL of 0.1% formic acid in methanol. The eluant was analyzed by an API 3000 LC-MS/MS system (Applied Biosystems—Foster City, Calif.). Samples were infused at 5 μL/min directly into the TurboIonSpray Source (Applied Biosystems—Foster City, Calif.), which was operated in the positive ionization mode. […]
smiles,measurement,setting,value
"CN(C)CCN1C(=O)c2cccc3cc(N)cc(c23)C1=O [amonafide, reference compound]",N-acetylation by NAT2 (ratio of acetylated to parent compound),,extensively acetylated
same,N-acetylation by NAT2 (ratio of acetylated to parent compound),listed as Amonafide,underwent extensive acetylation
